Measurements reported in patent publication US20100210597A1, “C21-Deoxy Ansamycin Derivatives as Antitumor Agents” (priority 2007, published 2010).
Like-named read-outs stand apart in the source and are kept apart here.

Key:
MEXF 394NL = test: Monolayer proliferation assay (modified propidium iodide), MEXF 394NL; format: cell-based, human; settings: average of 2 experiments
Experimental: (§1) In vitro evaluation of compounds for anticancer activity in a panel of human tumour cell lines in a monolayer proliferation assay was carried out at the Oncotest Testing Facility, Institute for Experimental Oncology, Oncotest GmbH, Freiburg.
(§2) The Oncotest cell lines are established from human tumor xenografts as described by Roth et al., (1999). The origin of the donor xenografts is described by Fiebig et al., (1999). Other cell lines are either obtained from the NCl (DU145, MCF-7) or purchased from DSMZ, Braunschweig, Germany.
(§3) All cell lines, unless otherwise specified, are grown at 37° C. in a humidified atmosphere (95% air, 5% CO2) in a ‘ready-mix’ medium containing RPMI 1640 medium, 10% fetal calf serum, and 0.1 mg/mL gentamicin (PAA, Cölbe, Germany).
(§4) A modified propidium iodide assay was used to assess the effects of the test compound(s) on the growth of six human tumour cell lines (Dengler et al., (1995)).
(§5) Briefly, cells are harvested from exponential phase cultures by trypsinization, counted and plated in 96 well flat-bottomed microtitre plates at a cell density dependent on the cell line (5-10.000 viable cells/well). After 24 h recovery to allow the cells to resume exponential growth, 0.010 mL of culture medium (6 control wells per plate) or culture medium containing macbecin were added to the wells. Each concentration is plated in triplicate. Compounds were applied in two concentrations (0.001 mM and 0.01 mM). Following 4 days of continuous exposure, cell culture medium with or without test compound was replaced by 0.2 mL of an aqueous propidium iodide (P1) solution (7 mg/L). To measure the proportion of living cells, cells were permeabilized by freezing the plates. After thawing the plates, fluorescence was measured using the Cytofluor 4000 microplate reader (excitation 530 nm, emission 620 nm), giving a direct relationship to the total number of viable cells.
(§6) Growth inhibition is expressed as treated/control×100 (% T/C).
(§7) In vitro evaluation of the test compound, 20, for anticancer activity in a panel of human tumour cell lines in a monolayer proliferation assay was carried out as described in the general methods using a modified propidium iodide assay.

DU145 = test: Monolayer proliferation assay (modified propidium iodide), DU145; format: cell-based, human; settings: average of 2 experiments
Experimental: as §1, §2, §3, §4, §5, §6, §7

Caco-2 cells = test: In vitro Caco-2 assay for cell permeability; format: in vitro ADME; settings: 10 uM, 2 hour incubation
Experimental: (§8) Caco-2 cells (ATCC Cat. # HTB-37) were grown on fibrillar collagen-coated, microporous, polycarbonate membranes in 24-well BioCaot™ insert plates. Following 5-day growth in Eagle's minimum essential medium supplemented with 10% FBS, the cells were exposed to BioCoat Enterocyte Differentiation Medium (BD, Cat. # 05496) for 2 days to induce enterocytic differentiation. Prior to dosing, the transepithelial electric resistance (TEER) of the Caco-2 cells in each well was measured to ensure the quality of the monolayers.
(§9) The stock solutions of test compounds were prepared at 3 mM in DMSO. Dosing solutions were prepared in the permeability assay buffer at 10 μm. The permeability assay buffer was Hank's balanced salt solution containing 10 mM HEPES at a pH of 7.4±0.2.
(§10) The Caco-2 cells were dosed with the test compounds on either apical side (for A-to-B permeation) or basolateral side (for B-to-A permeation) and incubated at 37° C. with 5% CO2 and 90% relative humidity. The testing for each compound was performed in duplicate. After 2 hour incubation, a 20-μL sample was taken from each of dosing solutions and both donor and receiver compartments. To ensure the validity of the Caco-2 assay, propranolol and vinblastine were used as a high- and a low- to medium-permeability positive control, respectively. Vinblastine also served as a P-gp substrate, tested in conjunction with a P-gp inhibitor, verapamil.
(§11) To quantify test compounds by LC/MS/MS, a related geldanamycin-like compound, 17-methoxyethylamino geldanamycin (Schnur et al., 1995), was used as the internal standard. The calculation of permeability of each compound involved only the concentration ratio of the same test compound, the concentration ratio was expressed in the peak area ratio of the test compound to the internal standard. The peak area ratio of each compound was derived by LC-MS/MS.
(§12) The apparent permeability coefficient Papp was calculated as below: […]
(§13) dCr: cumulative concentration in the receiver compartment in M. dt: duration of the assay (i.e., 7200 seconds). Vr: volume of the receiver compartment in cm^3. A: area of the cell monolayer (0.31 cm^2 for 24-well BioCoat™ plate). C0: concentration of the dosing solution in M.
(§14) The in vitro permeability of 20 and the parent 17 were assayed using caco-2 cells, as described in the general methods. All compounds were analysed at a concentration of 10 uM.

[1] = In vitro Caco-2 assay for cell permeability; format: in vitro ADME; settings: human, Caco-2, pH 7.4, 10 uM, 2 hour incubation
Experimental: as §8, §9, §10, §11, §12, §13, §14

[2] = Whole blood cleavage assay, mouse blood; format: in vitro ADME; settings: 10 uM, 37° C., two hours
Experimental: (§15) Human whole blood (single donor, batch HBE4534) was obtained from First Link UK Ltd. Mouse whole blood (pool of 10, batch 07-2470) was obtained from Harlan UK. Blood was collected into tubes containing EDTA as anticoagulant and shipped on ice. Blood was used on the day of arrival. In the case of human whole blood incubations were undertaken both on the fresh blood and also after freezing the blood followed by thawing. Control compounds were Lidocaine, Bisacodyl and Simvastatin.
(§16) All test compounds were incubated at 10 uM in whole blood at 37° C. At selected time points, 0.1 ml of blood was mixed with 0.3 ml of acetonitrile and vortexed immediately. All samples were centrifuged and supernatant were diluted with same volume of deionized water. […] For 20 sample analysis, mass spectrometry monitored both 17 and 20. […]
(§17) The Half life, for the disappearance of 20, was determined according to the relationship: […]
(§18) Blood cleavage assays were run to confirm that 20 acts as a prodrug and cleaves to produce compound 17 when incubated with human and mouse blood, as described in the general methods. The compound was incubated in human or mouse blood with samples removed over two hours, and analysed by LC MS/MS for presence of 20 and 17 (see FIG. 6). […] Due to the differing responses of 17 and 20 on mass spectrometry it was not possible to quantify the extent of conversion of 20 to 17.

[3] = Whole blood cleavage assay, human blood; format: in vitro ADME; settings: 10 uM, 37° C., two hours
Experimental: as §15, §16, §17, §18

## CO[C@H]1C[C@H](C)Cc2cc(cc(OP(=O)(O)O)c2)NC(=O)/C(C)=C/CC[C@H](C)[C@@H](OC(N)=O)/C(C)=C/[C@H](C)[C@H]1O [Compound 20, 4,5-dihydro-11-O-demethyl-15-demethoxy-18,21-didehydro-21-deoxomacbecin-18-phosphate]
MEXF 394NL; 0.01 μg/mL
  Test/Control (%) at drug concentration (μg/mL): 102%
MEXF 394NL; 0.1 μg/mL
  Test/Control (%) at drug concentration (μg/mL): 50%
MEXF 394NL; 1 μg/mL
  Test/Control (%) at drug concentration (μg/mL): 17%
MEXF 394NL; 10 μg/mL
  Test/Control (%) at drug concentration (μg/mL): 16%
MEXF 394NL; 100 μg/mL
  Test/Control (%) at drug concentration (μg/mL): 3%
DU145; DU145, 0.01 μg/mL
  Test/Control (%) at drug concentration (μg/mL): 99%
DU145; DU145, 0.1 μg/mL
  Test/Control (%) at drug concentration (μg/mL): 53%
DU145; DU145, 1 μg/mL
  Test/Control (%) at drug concentration (μg/mL): 8%
DU145; DU145, 10 μg/mL
  Test/Control (%) at drug concentration (μg/mL): 9%
DU145; DU145, 100 μg/mL
  Test/Control (%) at drug concentration (μg/mL): 3%
Caco-2 cells
  Efflux Limited: No
[1]; read-out: Efflux ratio Papp(B → A)/Papp(A → B)
  efflux ratio at 2 h, 10 uM: 0.7
[1]; read-out: Permeability Apical to Basolateral Papp(A → B) Mean
  Papp A→B at 2 h, 10 uM: 0.49 ×10⁻⁶ cm/s
[1]; read-out: Permeability Apical to Basolateral Papp(A → B) Rep. 1
  Papp A→B at 2 h, 10 uM: 0.67 ×10⁻⁶ cm/s
[1]; read-out: Permeability Apical to Basolateral Papp(A → B) Rep. 2
  Papp A→B at 2 h, 10 uM: 0.31 ×10⁻⁶ cm/s
[1]; read-out: Permeability Basolateral to Apical Papp(B → A) Mean
  Papp B→A at 2 h, 10 uM: 0.35 ×10⁻⁶ cm/s
[1]; read-out: Permeability Basolateral to Apical Papp(B → A) Rep. 1
  Papp B→A at 2 h, 10 uM: 0.22 ×10⁻⁶ cm/s
[1]; read-out: Permeability Basolateral to Apical Papp(B → A) Rep. 2
  Papp B→A at 2 h, 10 uM: 0.48 ×10⁻⁶ cm/s
[2]
  conversion in blood: act as a prodrug and release 17
[3]
  conversion in blood: act as a prodrug and release 17
